Results as given in the NIST ThermoML archive (doi:10.1021/je034087q).
Numbers after ± are expanded uncertainties.

Assay: xn = mol fraction of the nth substance listed
Conditions: 323.15 K

CCCCC [pentane] + O=C=O
Conditions | mass density [kg/m3]
9400 kPa, Fluid (supercritical or subcritical phases), x2 = 0.939 | 522 ± 3
9410 kPa, Fluid (supercritical or subcritical phases), x2 = 0.916 | 590 ± 4
9440 kPa, Fluid (supercritical or subcritical phases), x2 = 0.87 | 630 ± 4
9480 kPa, Fluid (supercritical or subcritical phases), x2 = 0.901 | 601 ± 4
9510 kPa, Fluid (supercritical or subcritical phases), x2 = 0.939 | 534 ± 3
9550 kPa, Fluid (supercritical or subcritical phases), x2 = 0.791 | 688 ± 4
9560 kPa, Fluid (supercritical or subcritical phases), x2 = 0.671 | 726 ± 5
9600 kPa, Fluid (supercritical or subcritical phases), x2 = 0.901 | 607 ± 4
9630 kPa, Fluid (supercritical or subcritical phases), x2 = 0.916 | 603 ± 4
9630 kPa, Fluid (supercritical or subcritical phases), x2 = 0.939 | 545 ± 3
9670 kPa, Fluid (supercritical or subcritical phases), x2 = 0.87 | 638 ± 4
9740 kPa, Fluid (supercritical or subcritical phases), x2 = 0.214 | 631 ± 4
9740 kPa, Fluid (supercritical or subcritical phases), x2 = 0.901 | 613 ± 4
9790 kPa, Fluid (supercritical or subcritical phases), x2 = 0.939 | 558 ± 4
9920 kPa, Fluid (supercritical or subcritical phases), x2 = 0.901 | 619 ± 4
9940 kPa, Fluid (supercritical or subcritical phases), x2 = 0.916 | 615 ± 4
9970 kPa, Fluid (supercritical or subcritical phases), x2 = 0.939 | 572 ± 4
10000 kPa, Fluid (supercritical or subcritical phases), x2 = 0.901 | 622 ± 4
10010 kPa, Fluid (supercritical or subcritical phases), x2 = 0.87 | 645 ± 4
10080 kPa, Fluid (supercritical or subcritical phases), x2 = 0.901 | 626 ± 4
10160 kPa, Fluid (supercritical or subcritical phases), x2 = 0.901 | 628 ± 4
10170 kPa, Fluid (supercritical or subcritical phases), x2 = 0.939 | 586 ± 4
10240 kPa, Fluid (supercritical or subcritical phases), x2 = 0.36 | 651 ± 4
10270 kPa, Fluid (supercritical or subcritical phases), x2 = 0.901 | 633 ± 4
10290 kPa, Fluid (supercritical or subcritical phases), x2 = 0.791 | 697 ± 4
10300 kPa, Fluid (supercritical or subcritical phases), x2 = 0.916 | 628 ± 4
10420 kPa, Fluid (supercritical or subcritical phases), x2 = 0.87 | 654 ± 4
10420 kPa, Fluid (supercritical or subcritical phases), x2 = 0.901 | 637 ± 4
10440 kPa, Fluid (supercritical or subcritical phases), x2 = 0.939 | 600 ± 4
10620 kPa, Fluid (supercritical or subcritical phases), x2 = 0.901 | 642 ± 4
10710 kPa, Fluid (supercritical or subcritical phases), x2 = 0.671 | 734 ± 5
10730 kPa, Fluid (supercritical or subcritical phases), x2 = 0.916 | 642 ± 4
10760 kPa, Fluid (supercritical or subcritical phases), x2 = 0.901 | 647 ± 4
10790 kPa, Fluid (supercritical or subcritical phases), x2 = 0.939 | 616 ± 4
10850 kPa, Fluid (supercritical or subcritical phases), x2 = 0.87 | 661 ± 4
10950 kPa, Fluid (supercritical or subcritical phases), x2 = 0.901 | 652 ± 4
11040 kPa, Fluid (supercritical or subcritical phases), x2 = 0.791 | 703 ± 4
11060 kPa, Fluid (supercritical or subcritical phases), x2 = 0.214 | 634 ± 4
11220 kPa, Fluid (supercritical or subcritical phases), x2 = 0.901 | 656 ± 4
11230 kPa, Fluid (supercritical or subcritical phases), x2 = 0.36 | 654 ± 4
11250 kPa, Fluid (supercritical or subcritical phases), x2 = 0.939 | 635 ± 4
11260 kPa, Fluid (supercritical or subcritical phases), x2 = 0.916 | 657 ± 4
11320 kPa, Fluid (supercritical or subcritical phases), x2 = 0.939 | 639 ± 4
11440 kPa, Fluid (supercritical or subcritical phases), x2 = 0.901 | 661 ± 4
11450 kPa, Fluid (supercritical or subcritical phases), x2 = 0.87 | 670 ± 4
11610 kPa, Fluid (supercritical or subcritical phases), x2 = 0.901 | 666 ± 4
11890 kPa, Fluid (supercritical or subcritical phases), x2 = 0.901 | 672 ± 4
11910 kPa, Fluid (supercritical or subcritical phases), x2 = 0.791 | 713 ± 4
11930 kPa, Fluid (supercritical or subcritical phases), x2 = 0.916 | 672 ± 4
11970 kPa, Fluid (supercritical or subcritical phases), x2 = 0.87 | 678 ± 4
11980 kPa, Fluid (supercritical or subcritical phases), x2 = 0.671 | 740 ± 5
12080 kPa, Fluid (supercritical or subcritical phases), x2 = 0.901 | 675 ± 4
12440 kPa, Fluid (supercritical or subcritical phases), x2 = 0.901 | 681 ± 4
12460 kPa, Fluid (supercritical or subcritical phases), x2 = 0.36 | 656 ± 4
12560 kPa, Fluid (supercritical or subcritical phases), x2 = 0.214 | 638 ± 4
12580 kPa, Fluid (supercritical or subcritical phases), x2 = 0.87 | 687 ± 4
12760 kPa, Fluid (supercritical or subcritical phases), x2 = 0.901 | 686 ± 4
12790 kPa, Fluid (supercritical or subcritical phases), x2 = 0.916 | 687 ± 4
13000 kPa, Fluid (supercritical or subcritical phases), x2 = 0.901 | 690 ± 4
13060 kPa, Fluid (supercritical or subcritical phases), x2 = 0.791 | 721 ± 5
13280 kPa, Fluid (supercritical or subcritical phases), x2 = 0.901 | 695 ± 4
13290 kPa, Fluid (supercritical or subcritical phases), x2 = 0.87 | 695 ± 4
13530 kPa, Fluid (supercritical or subcritical phases), x2 = 0.901 | 698 ± 4
13560 kPa, Fluid (supercritical or subcritical phases), x2 = 0.36 | 659 ± 4
13800 kPa, Fluid (supercritical or subcritical phases), x2 = 0.671 | 749 ± 5
13800 kPa, Fluid (supercritical or subcritical phases), x2 = 0.901 | 701 ± 4
13860 kPa, Fluid (supercritical or subcritical phases), x2 = 0.214 | 640 ± 4
13860 kPa, Fluid (supercritical or subcritical phases), x2 = 0.916 | 705 ± 4
14040 kPa, Fluid (supercritical or subcritical phases), x2 = 0.87 | 704 ± 4
14050 kPa, Fluid (supercritical or subcritical phases), x2 = 0.901 | 705 ± 4
14440 kPa, Fluid (supercritical or subcritical phases), x2 = 0.901 | 712 ± 4
14470 kPa, Fluid (supercritical or subcritical phases), x2 = 0.916 | 715 ± 4
14510 kPa, Fluid (supercritical or subcritical phases), x2 = 0.791 | 732 ± 5
14700 kPa, Fluid (supercritical or subcritical phases), x2 = 0.901 | 714 ± 4
14730 kPa, Fluid (supercritical or subcritical phases), x2 = 0.87 | 713 ± 4
14810 kPa, Fluid (supercritical or subcritical phases), x2 = 0.36 | 662 ± 4
15220 kPa, Fluid (supercritical or subcritical phases), x2 = 0.214 | 642 ± 4
Liquid, Other PVT measurement, x2 = 0.214 | 603 ± 2
Liquid, Other PVT measurement, x2 = 0.36 | 632 ± 2
Liquid, Other PVT measurement, x2 = 0.671 | 702 ± 2
Liquid, Other PVT measurement, x2 = 0.791 | 651 ± 2
Liquid, Other PVT measurement, x2 = 0.87 | 573 ± 2
Liquid, Other PVT measurement, x2 = 0.901 | 511 ± 2
